This is an account of results in patent publication US20260248773A1, “POTASSIUM CHANNEL BLOCKERS OR DERIVATIVES THEREOF FOR PREVENTING, ALLEVIATING, AND/OR TREATING TISSUE DYSFUNCTION CAUSED BY TOXIC INSULTS” (priority 2022, published 2026).

For series [1], the system named is CIPN. The conditions noted are these: 0-10 point scale; cited from earlier work.
The subject of series [2] is glial fibrillary acidic protein (GFAP). Kind of series: GFAP immunofluorescence in corpus callosum after PTX with or without 4-AP (Example 9). It counts as in vivo. As to conditions: E0771 tumor-bearing mice; PTX 35 mg/kg day one. The procedure: To determine whether 4-AP treatment can prevent PTX-induced increases in a reactive inflammatory response in the brain, as detected by increased expression of glial fibrillary acidic protein (GFAP), 16-week-old female C57BL/6 mice were inoculated with a triple negative murine breast cancer cell line E0771. When tumors were palpable, the mice were injected with either paclitaxel and water, 4-AP, both, or saline as a control. Paclitaxel (35 mg/kg) was injected on day one and 4-AP and water were injected daily. The mice were sacrificed on day nine and their brains were perfused and harvested. Brains were cryosectioned coronally.
The mouse brain sections were stained with anti-GFAP antibodies, followed by a fluorescent secondary, for analysis via immunofluorescence.

For series [3], the system named is chemotherapy-induced peripheral neuropathy (CIPN) caused by PTX. The conditions noted are these: mouse, in vivo. The procedure: More specifically, initial studies were conducted on the specific case of CIPN as induced by exposure to PTX. […] 16 week old C73L/6 female mice were given a single dose of 35 mg/kg PTX (i.p.). Animals were separated into control (saline, i.p., n=4) or treatment group (2 mg/kg 4-AP daily, i.p., n=4). Pre-treatment Catwalk scores were compared to 21 days post-PTX injection.
To align with clinical treatments, mice were treated with a PTX dose of 35 mg/kg (equivalent to approximately 110 mg/m^2 and within the clinical treatment range) for four cycles, each three weeks apart.
The studies also included a 4-AP treatment arm (n=4) with a daily dose of 2 mg/kg 4-AP administered i.p. (as per most previous studies by MN and colleagues).
To evaluate detailed functional changes in gait, the CatWalk™ (Noldus Information Technology, Wageningen, The Netherlands) method was implemented.
Sciatic nerve samples were harvested and resin-embedded, sectioned and imaged using transmission electron microscopy. Images were analyzed to calculate markers of peripheral neuropathy, namely: axon counts, fiber size, myelination (g ratio), and circumferential irregularity (FIG. 2).

For series [4], the system named is kidney. Kind of series: Kidney histology (H&E) after PTX with or without 4-AP (Example 8). In kind it is in vivo, mice. The conditions noted are these: PTX treated, daily saline. The procedure: To examine effects on the kidney histological studies were conducted on this tissue. Mice received PTX on day 0 of the experiment, and half of those mice also were injected with 4-AP at this time, and every day thereafter, at a dosage of 2 mg/kg. Mice not receiving 4-AP were injected with saline to control for any stress induced by daily injections. Experimental groups also included mice receiving no PTX treatment, and treated only with daily injections of saline. Mice were sacrificed after 1 week. Mice were perfused with 4% paraformaldehyde and kidneys were sectioned and stained with haematoxylin & eosin (H&E).

For the molecule `CNCC[C@H](Oc1cccc2ccccc12)c1cccs1` [duloxetine], in series [1], the “average reduction in pain” value is 0.72 point.
Regarding `CC(=O)O[C@H]1C(=O)[C@@]2(C)[C@H]([C@H](OC(=O)c3ccccc3)[C@]3(O)C[C@H](OC(=O)[C@H](O)[C@@H](NC(=O)c4ccccc4)c4ccccc4)C(C)=C1C3(C)C)[C@]1(OC(C)=O)CO[C@@H]1C[C@@H]2O` [PTX, paclitaxel], the “expression of GFAP after PTX, corpus callosum” value in series [2] is on record as “increased expression of GFAP”. Besides, in series [3], the “tolerability of PTX dose” value was “tolerated the dose”. Besides, in series [4], the “kidney histology after PTX, H&E staining” value was “Loss of brush borders (dark grey arrows), nuclear dropout (grey arrow), and blebbing of tubular epithelial cells”.
